# Patent US7875625B2, “Cyclohepta[b]pyridine-3-carbonylguanidine derivative and pharmaceutical product containing same” (Toa Eiyo Ltd., priority 2005, dated 2011)
# Where a name gives a salt, the structure may show the parent alone.
# How the values were obtained:
# Na^+/H^+ exchanger (NHE) = biological target: T1, Na^+/H^+ exchanger (NHE) (Rattus norvegicus, UniProt P26431); test: NHE inhibitory effect test (swelling of rat platelets induced by sodium propionate); type: cell-based; conditions: for IC50: rat platelet-rich plasma, sodium propionate buffer pH 6.7, 300 μM Amiloride taken as 100% inhibition, Probit method; for NHE inhibitory activity (in words): compared with the control compound
# T1 construct: from tissue; host or cells: platelet-rich plasma from Wistar rat blood
# Description: The NHE inhibitory activity was measured according to the method by Scholz et al. [British Journal of Pharmacology, Vol. 109, p. 562-568 (1993)], taking the swelling of rat platelets induced by sodium propionate as an index.
# Under etherization, blood was collected (8 mL) from the abdominal aorta of a Wistar rat, and 1 mL of a citrate dextrose solution as an anticoagulant was added. The blood sample was immediately centrifuged at 90×g for 10 minutes, and then the collected supernatant was taken as platelet-rich plasma. Subsequently, to 250 μL of a 140 mM sodium propionate buffer solution containing the test compound dissolved in dimethylsulfoxide (pH 6.7, final dimethylsulfoxide concentration 1%), the platelet-rich plasma prepared in the above (number of platelet; 10×10^6/50 μL) was added, and the decrease in the absorbance associated with the swelling of platelets was measured over time with a Hematracer (NKK Corp.).
# The rate of decrease in the absorbance at 20 seconds after the addition of the platelet-rich plasma was taken as the NHE activity, and the inhibitory activity of the respective compounds was expressed as a relative activity, while the action obtained upon addition of 300 μM of Amiloride was taken as 100% inhibition.
# In addition, the test results were obtained by calculating the concentration at which the inhibitory activity of the test compound becomes 50% (IC50 value), by a Probit method.
# [1] = system: reperfusion-induced arrhythmia upon myocardial ischemia; test: Reperfusion-induced arrhythmia inhibitory action test; type: in vivo, rat; conditions: male SD rats, 3.62 mmol/L, 1 mL/kg intravenous, within 10 minutes after reperfusion
# Description: Subsequently, in evaluation of the in vivo NHE inhibitory action, the effect of the test compound on reperfusion-induced arrhythmia upon myocardial ischemia was evaluated according to the method of Aihara et al. [European Journal of Pharmacology, Vol. 404, p. 221-229 (2000)]. Under anesthesia using pentobarbital sodium (60 mg/kg, intraperitoneal administration), cannulae were inserted into trachea, femoral vein and carotid artery of male SD rats ([…]) for artificial ventilation, drug administration and blood pressure measurement, respectively. The blood pressure was measured using a strain pressure amplifier via a pressure transducer, while the heart rate was measured from the blood pressure pulse wave using a cardiotachometer. Furthermore, an electrocardiogram (lead II) was measured from the electrodes attached to each four limbs. Next, under artificial ventilation, left thoracotomy was performed and a snare (5-0 nylon) was loosely placed around a blood vessel which was about 3 mm apart from the origin of the left coronary artery. Thereafter, it was confirmed that arrhythmia was not occurred for 10 minutes, and then the snare was fastened to induce local myocardial ischemia. Furthermore, after 4 minutes of myocardial ischemia, the compound was intravenously administered for 1 minute, and after 5 minutes of myocardial ischemia, the snare was loosened, then the arrhythmia occurred after reperfusion was recorded and analyzed with an arrhythmia analyzer (Softron Co., Ltd.), thereby the anti-arrhythmic action of the compound was evaluated. […] The control group was administered with physiological saline.
# With regard to the ventricular fibrillation (Vf) which occurred within 10 minutes after reperfusion (in the cases of halfway death, up to the time point where cardiac arrest was confirmed), arrhythmia analysis was performed according to the Guidelines for Lambeth Convention [Cardiovascular research, Vol. 22, p. 447-455, 1988], and evaluation was made in terms of the frequency of Vf occurrence, cumulative duration time of Vf, and the mortality.
# The frequency of Vf occurrence, cumulative duration of Vf, and the mortality for the respective test compounds are presented in Table 2.
# [2] = Metabolic stability test in rat (generation of control compound in plasma); type: in vivo; conditions: male SD rats; for Plasma concentration of the control compound, after 5 min / Plasma concentration of the control compound, after 15 min / Plasma concentration of the control compound, after 30 min / Plasma concentration of the control compound, after 60 min / Plasma concentration of the control compound, after 120 min: equivalent of 1 mg/kg control compound via tail vein, LC/MS/MS; for Decomposition into the Control Compound in vivo (in words): tail vein, plasma 5-120 min
# Description: The compound represented by Formula (1) of the present invention has a structure in which the hydroxyl group on the 9-position of a 9-hydroxymethyl-cyclohepta[b]pyridine-3-carbonylguanidine derivative is converted to a specific substituent. However, if the compound is metabolized in vivo to remove the specific substituent from the compound, there may be generated the original 9-hydroxymethyl-cyclohepta[b]pyridine-3-carbonylguanidine derivative, which has toxic effects on the central nervous system. Thus, the inventive compounds as synthesized in Examples were administered in vivo to study whether the control compound, which was the corresponding 9-hydroxymethyl product, was generated.
# Male SD rats (7 weeks old) were administered at 1 mg/kg (an amount calculated excluding salts) of the control compound, an equivalent amount of the Inventive Compound 2, 4, 6, 7 or 12, or Reference Compound 20, through the tail vein. After administration, about 0.2 mL of blood samples were collected after 5, 15, 30, 60 and 120 minutes, and the blood samples were centrifuged at 4° C. at a speed of rotation of 15000 for 15 minutes, thus to separate the supernatant plasma. The concentration of the control compound in the plasma was measured by LC/MS/MS. The measurement results were shown as +++ when the detected plasma concentration of the control compound is 200 ng/mL or greater; ++ for more than 100 ng/mL and less than 200 ng/mL; + for more than 20 ng/mL and less than 100 ng/mL; and − for less than 20 ng/mL or no detection.
# male mice = test: Toxicity test with 2-days repeated intraperitoneal administration in mouse; type: in vivo; conditions: equivalent of 300 mg/kg control compound intraperitoneally once a day for 2 days
# Description: For three male mice in each group, 300 mg/kg of the Control Compound (an amount calculated excluding salts), or an equivalent amount of the Inventive Compound 2, 4, 6, 7 or 12 were intraperitoneally administered once a day for 2 days, and a histopathological tests were performed. The Control Compound, and the Inventive Compounds 2, 4 and 6 were suspended in a 0.5% tragacanth gum solution, and the Inventive Compound 7 was suspended in a 10 DMSO-containing 0.5% tragacanth gum solution, while the Inventive Compound 12 was suspended in olive oil. For the histopathological test, in order to make a more thorough examination of central nervous toxicity, the brain was examined after whole body was subjected to perfusion fixation with a 4% formaldehyde in neutral phosphate buffer as a fixing solution using a liquid transporting pump under pentobarbital sodium anesthesia.
# Beagle dogs = test: Toxicity test after 4-days repeated intravenous administration in beagle dogs; type: in vivo, dog; conditions: equivalent of 30 mg/kg control compound intravenously once a day for 4 days
# Description: With one male and one female dogs in each group, 30 mg/kg of the Control Compound dissolved in physiological saline (an amount calculated excluding salts), or an equivalent amount of the Inventive Compound 2, 4, 6 or 8 was repeatedly administered intravenously once a day for 4 days, and general symptom observation and pharmacological histopathologic examination were performed.
# T1 sequence (P26431 whole entry): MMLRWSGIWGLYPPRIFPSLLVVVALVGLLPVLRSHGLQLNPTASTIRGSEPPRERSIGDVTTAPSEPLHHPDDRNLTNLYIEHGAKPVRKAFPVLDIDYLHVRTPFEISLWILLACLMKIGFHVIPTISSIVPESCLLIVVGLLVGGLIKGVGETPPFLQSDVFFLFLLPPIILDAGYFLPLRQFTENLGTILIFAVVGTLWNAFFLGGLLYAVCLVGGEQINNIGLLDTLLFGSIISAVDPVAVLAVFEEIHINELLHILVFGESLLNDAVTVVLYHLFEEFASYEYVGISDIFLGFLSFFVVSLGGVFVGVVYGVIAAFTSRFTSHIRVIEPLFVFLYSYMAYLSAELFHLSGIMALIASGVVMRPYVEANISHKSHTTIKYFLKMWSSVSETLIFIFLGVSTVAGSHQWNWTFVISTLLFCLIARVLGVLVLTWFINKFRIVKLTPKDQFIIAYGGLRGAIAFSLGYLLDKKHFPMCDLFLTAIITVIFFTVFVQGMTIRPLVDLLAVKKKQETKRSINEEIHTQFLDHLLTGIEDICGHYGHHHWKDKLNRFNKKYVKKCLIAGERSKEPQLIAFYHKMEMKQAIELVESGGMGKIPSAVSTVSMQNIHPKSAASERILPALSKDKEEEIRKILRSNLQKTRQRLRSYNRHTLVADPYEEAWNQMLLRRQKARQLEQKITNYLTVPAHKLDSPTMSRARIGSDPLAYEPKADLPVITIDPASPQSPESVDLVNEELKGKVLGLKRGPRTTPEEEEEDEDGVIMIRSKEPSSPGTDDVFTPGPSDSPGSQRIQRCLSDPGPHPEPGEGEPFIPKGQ
SMILES,IC50 (Na^+/H^+ exchanger (NHE)) [µM],Cumulative duration of Vf [1] [s],Frequency of Vf occurrence [1] [%],Mortality [1] [%],"Plasma concentration of the control compound, after 5 min [2]","Plasma concentration of the control compound, after 15 min [2]","Plasma concentration of the control compound, after 30 min [2]","Plasma concentration of the control compound, after 60 min [2]","Plasma concentration of the control compound, after 120 min [2]",Decomposition into the Control Compound in vivo (in words) [2],NHE inhibitory activity (in words) (Na^+/H^+ exchanger (NHE)),Histopathological finding in the brain (male mice),General condition (symptom observation) (Beagle dogs),Pathologic examination of the brain (Beagle dogs)
"Cc1nc2c(cc1C(=O)NC(=N)N)CCCCC2COP(=O)([O-])[O-].[Na+].[Na+] (stereo not drawn) [Reference Compound 20, 3-Guanidinocarbonyl-2-methyl-6,7,8,9-tetrahydro-5H-cyclohepta[b]pyridin-9-ylmethyl phosphate disodium salt, reference compound]",0.662,46.8,80,40,+++ (+++ when the detected plasma concentration of the control compound is 200 ng/mL or greater),++ (++ for more than 100 ng/mL and less than 200 ng/mL),+ (+ for more than 20 ng/mL and less than 100 ng/mL),+ (+ for more than 20 ng/mL and less than 100 ng/mL),− (− for less than 20 ng/mL or no detection),rapidly degraded to the Control Compound,–,–,–,–
"Cc1nc2c(cc1C(=O)NC(=N)N)C(OS(=O)(=O)O)CCCC2 (stereo not drawn) [Reference Compound 23, 3-Guanidinocarbonyl-2-methyl-6,7,8,9-tetrahydro-5H-cyclohepta[b]pyridin-5-yl hydrogen sulfate, reference compound]",37.1,–,–,–,–,–,–,–,–,–,significant lowering in the activity,–,–,–
"Cc1nc2c(cc1C(=O)NC(=N)N)CCCCC2COC(=O)N[C@H]1CO[C@H]2[C@@H]1OC[C@H]2OS(=O)(=O)O (stereo partly drawn) [Inventive Compound 12, 2-Deoxy-1,4:3,6-dianhydro-2-(3-guanidinocarbonyl-2-methyl-6,7,8,9-tetrahydro-5H-cyclohepta[b]pyridin-9-ylmethyloxycarbonylamino)-D-glucitol-5-yl hydrogen sulfate]",0.227,0.0,0,0,− (− for less than 20 ng/mL or no detection),− (− for less than 20 ng/mL or no detection),− (− for less than 20 ng/mL or no detection),− (− for less than 20 ng/mL or no detection),− (− for less than 20 ng/mL or no detection),not detected at any time point,–,any histologic finding which could be caused by drug administration was not recognized,–,–
"Cc1nc2c(cc1C(=O)NC(=N)N)CCCCC2COC(=O)NCCOCCOS(=O)(=O)O (stereo not drawn) [Inventive Compound 7, 2-[2-(3-Guanidinocarbonyl-2-methyl-6,7,8,9-tetrahydro-5H-cyclohepta[b]pyridin-9-ylmethyloxycarbonylamino)ethoxy]ethyl hydrogen sulfate]",0.313,15.4,40,0,− (− for less than 20 ng/mL or no detection),− (− for less than 20 ng/mL or no detection),− (− for less than 20 ng/mL or no detection),− (− for less than 20 ng/mL or no detection),− (− for less than 20 ng/mL or no detection),not detected at any time point,–,any histologic finding which could be caused by drug administration was not recognized,–,–
"Cc1nc2c(cc1C(=O)NC(=N)N)CCCCC2COC(=O)NCCOCCOS(=O)(=O)[O-].[Na+] (stereo not drawn) [Inventive Compound 8, 2-[2-(3-Guanidinocarbonyl-2-methyl-6,7,8,9-tetrahydro-5H-cyclohepta[b]pyridin-9-ylmethyloxycarbonylamino)ethoxy]ethyl sulfate sodium salt]",–,–,–,–,–,–,–,–,–,–,–,–,only vomiting was recognized,any histologic finding which could be caused by drug administration was not recognized
"Cc1nc2c(cc1C(=O)NC(=N)N)CCCCC2COC(=O)NCCOCCOCCOCCOCCOCCOS(=O)(=O)[O-].[Na+] (stereo not drawn) [Inventive Compound 10, 17-(3-Guanidinocarbonyl-2-methyl-6,7,8,9-tetrahydro-5H-cyclohepta[b]pyridin-9-ylmethyloxycarbonylamino)-3,6,9,12,15-pentaoxaheptadecan-1-yl sulfate sodium salt]",0.291,11.1,67,0,–,–,–,–,–,–,–,–,–,–
"N=C(N)NC(=O)c1cc2c(nc1COS(=O)(=O)O)CCCCC2 [Reference Compound 22, 3-Guanidinocarbonyl-6,7,8,9-tetrahydro-5H-cyclohepta[b]pyridin-2-ylmethyl hydrogen sulfate, reference compound]",> 100,–,–,–,–,–,–,–,–,–,significant lowering in the activity,–,–,–
